The test system of experiment [1] is a variety of test species. The experiment can be described thus: Pre-emergence herbicidal activity (glasshouse, sprayed one day after sowing, evaluated after 13 days). Type of experiment: in vivo. On the set-up: key: 5=total damage to plant; 0=no damage to plant. To be noted: application pre-emergence, rate 1000 g/Ha, scale 0-5. How it is done: Seeds of a variety of test species were sown in standard soil in pots. After cultivation for one day (pre-emergence) under controlled conditions in a glasshouse (at 24/16° C., day/night; 14 hours light; 65% humidity), the plants were sprayed with an aqueous spray solution derived from the formulation of the technical active ingredient in acetone/water (50:50) solution containing 0.5% Tween 20 (polyoxyethelyene sorbitan monolaurate, CAS RN 9005-64-5). The test plants were then grown in a glasshouse under controlled conditions (at 24/16° C., day/night; 14 hours light; 65% humidity) and watered twice daily. After 13 days, the test was evaluated (5=total damage to plant; 0=no damage to plant).

Experiment [2] has as its system a variety of test species. The experiment in a line: Post-emergence herbicidal activity (glasshouse, sprayed after 8 days cultivation, evaluated after 13 days). It counts as in vivo. On the set-up: key: 5=total damage to plant; 0=no damage to plant. To be noted: rate 1000 g/Ha, scale 0-5. As to the method: Seeds of a variety of test species were sown in standard soil in pots. After 8 days cultivation (post-emergence) under controlled conditions in a glasshouse (at 24/16° C., day/night; 14 hours light; 65% humidity), the plants were sprayed with an aqueous spray solution derived from the formulation of the technical active ingredient in acetone/water (50:50) solution containing 0.5% Tween 20 (polyoxyethelyene sorbitan monolaurate, CAS RN 9005-64-5). The test plants were then grown in a glasshouse under controlled conditions (at 24/16° C., day/night; 14 hours light; 65% humidity) and watered twice daily. After 13 days, the test was evaluated (5=total damage to plant; 0=no damage to plant).

Results on 11 compounds are retold here after US9936701B2, “Herbicidal compounds” (Syngenta Participations AG, priority 2013, dated 2018).

Regarding `CCOCCNC1=C(Cl)C(=O)N(c2cc(C(C)(C)C)on2)C1O` (centres unmarked) [C12], in experiment [1], the “Pre-emergence herbicidal damage score, ABUTH” value is reported as 4; the “Pre-emergence herbicidal damage score, ALOMY” value was 1; the “Pre-emergence herbicidal damage score, AMARE” value turned out to be 4; the “Pre-emergence herbicidal damage score, ECHCG” value stood at 2. In addition, in experiment [1], the “Pre-emergence herbicidal damage score, SETFA” value worked out at 3 and the “Pre-emergence herbicidal damage score, ZEAMX” value was found to be 0. For the same compound, in experiment [2], the “ABUTH (Abutilon theophrasti) damage score, application post-emergence” value (shortened to “ABUTH … application post-emergence”) is 5; the “ALOMY (Alopecurus myosuroides) damage score, application post-emergence” value (from here on “ALOMY … application post-emergence”) came to 3; the “AMARE (Amaranthus retroflexus) damage score, application post-emergence” value (“AMARE … application post-emergence” for short) is listed as 4; the “ECHCG (Echinochloa crus-galli) damage score, application post-emergence” value (“ECHCG … application post-emergence” for short) is listed as 4. Moreover, in experiment [2], the “SETFA (Setaria faberi) damage score, application post-emergence” value (“SETFA (Setaria faberi) damage score” for short) is 4 and the “ZEAMX (Zea mays) damage score, application post-emergence” value (“ZEAMX (Zea mays) damage score” below) is reported as 0.

In the case of `COC1=C(C)C(=O)N(c2cc(C(C)(C)C)on2)C1O` (centres unmarked) [G1], in experiment [1], the “Pre-emergence herbicidal damage score, ABUTH” value was 5; the “Pre-emergence herbicidal damage score, ALOMY” value is recorded as 3; the “Pre-emergence herbicidal damage score, AMARE” value worked out at 5; the “Pre-emergence herbicidal damage score, ECHCG” value is 5. Besides, in experiment [1], the “Pre-emergence herbicidal damage score, SETFA” value was determined as 4 and the “Pre-emergence herbicidal damage score, ZEAMX” value worked out at 1. Besides, in experiment [2], the “ABUTH … application post-emergence” value is 5; the “ALOMY … application post-emergence” value was determined as 5; the “AMARE … application post-emergence” value stood at 5; the “ECHCG … application post-emergence” value is given as 5. In experiment [2], the “SETFA (Setaria faberi) damage score” value turned out to be 5 and the “ZEAMX (Zea mays) damage score” value is 5.

Regarding `CC1=C(I)C(=O)N(c2cc(C(C)(C)C)on2)[C@H]1O` [A17], in experiment [1], the “Pre-emergence herbicidal damage score, ABUTH” value is listed as 3; the “Pre-emergence herbicidal damage score, ALOMY” value is listed as 2; the “Pre-emergence herbicidal damage score, AMARE” value is on record as 5; the “Pre-emergence herbicidal damage score, ECHCG” value was 5. Besides, in experiment [1], the “Pre-emergence herbicidal damage score, SETFA” value stood at 3 and the “Pre-emergence herbicidal damage score, ZEAMX” value was found to be 2. In addition, in experiment [2], the “ABUTH … application post-emergence” value turned out to be 5; the “ALOMY … application post-emergence” value was found to be 5; the “AMARE … application post-emergence” value is 5; the “ECHCG … application post-emergence” value was found to be 5. In addition, in experiment [2], the “SETFA (Setaria faberi) damage score” value is on record as 5 and the “ZEAMX (Zea mays) damage score” value stood at 4.

`CC1=C(Cl)C(=O)N(c2cc(C)on2)C1O` (centres unmarked) [A4]: in experiment [1], the “Pre-emergence herbicidal damage score, ABUTH” value was 5; the “Pre-emergence herbicidal damage score, ALOMY” value is recorded as 3; the “Pre-emergence herbicidal damage score, AMARE” value worked out at 5; the “Pre-emergence herbicidal damage score, ECHCG” value worked out at 4. In addition, in experiment [1], the “Pre-emergence herbicidal damage score, SETFA” value is reported as 5 and the “Pre-emergence herbicidal damage score, ZEAMX” value amounted to 2. Moreover, in experiment [2], the “ABUTH … application post-emergence” value is on record as 5; the “ALOMY … application post-emergence” value is recorded as 4; the “AMARE … application post-emergence” value worked out at 5; the “ECHCG … application post-emergence” value stood at 5. In addition, in experiment [2], the “SETFA (Setaria faberi) damage score” value turned out to be 5 and the “ZEAMX (Zea mays) damage score” value came to 3.

For the compound `CC1=C(Cl)C(=O)N(c2noc(C(C)(C)C)c2C#N)C1OS(C)(=O)=O` (centres unmarked) [A98], in experiment [1], the “Pre-emergence herbicidal damage score, ABUTH” value was found to be 5; the “Pre-emergence herbicidal damage score, ALOMY” value amounted to 3; the “Pre-emergence herbicidal damage score, AMARE” value is listed as 5; the “Pre-emergence herbicidal damage score, ECHCG” value is 5. In experiment [1], the “Pre-emergence herbicidal damage score, SETFA” value was 5 and the “Pre-emergence herbicidal damage score, ZEAMX” value is recorded as 3. In experiment [2], the “ABUTH … application post-emergence” value was found to be 5; the “ALOMY … application post-emergence” value is on record as 5; the “AMARE … application post-emergence” value was 5; the “ECHCG … application post-emergence” value came out at 5. In experiment [2], the “SETFA (Setaria faberi) damage score” value is 5 and the “ZEAMX (Zea mays) damage score” value is listed as 4.

Consider `COc1ccccc1OC(=O)OC1C(C)=C(Cl)C(=O)N1c1cc(C(C)(C)C)on1` (centres unmarked) [A87], for which, in experiment [1], the “Pre-emergence herbicidal damage score, ABUTH” value was determined as 2; the “Pre-emergence herbicidal damage score, ALOMY” value came out at 2; the “Pre-emergence herbicidal damage score, AMARE” value is 3; the “Pre-emergence herbicidal damage score, ECHCG” value amounted to 1. In experiment [1], the “Pre-emergence herbicidal damage score, SETFA” value is listed as 1 and the “Pre-emergence herbicidal damage score, ZEAMX” value came to 0. In experiment [2], the “ABUTH … application post-emergence” value was 2; the “ALOMY … application post-emergence” value is on record as 2; the “AMARE … application post-emergence” value is listed as 4; the “ECHCG … application post-emergence” value stood at 3. Further, in experiment [2], the “SETFA (Setaria faberi) damage score” value stood at 2 and the “ZEAMX (Zea mays) damage score” value came to 0.

Regarding `CCCC1=C(Br)C(=O)N(c2noc(C(C)(C)C#N)c2C#N)C1OC(=O)CC` (centres unmarked) [A74], in experiment [1], the “Pre-emergence herbicidal damage score, ABUTH” value was determined as 5; the “Pre-emergence herbicidal damage score, ALOMY” value is on record as 4; the “Pre-emergence herbicidal damage score, AMARE” value was determined as 5; the “Pre-emergence herbicidal damage score, ECHCG” value is given as 5. Also, in experiment [1], the “Pre-emergence herbicidal damage score, SETFA” value was 5 and the “Pre-emergence herbicidal damage score, ZEAMX” value is 4. In experiment [2], the “ABUTH … application post-emergence” value was 5; the “ALOMY … application post-emergence” value amounted to 5; the “AMARE … application post-emergence” value worked out at 5; the “ECHCG … application post-emergence” value came to 5. Also, in experiment [2], the “SETFA (Setaria faberi) damage score” value was determined as 5 and the “ZEAMX (Zea mays) damage score” value was found to be 5.

Turning to `COC1=C(C)CN(c2cc(C(C)(C)C)on2)C1=O` [D9], in experiment [1], the “Pre-emergence herbicidal damage score, ALOMY” value is listed as 4; the “Pre-emergence herbicidal damage score, AMARE” value is 5; the “Pre-emergence herbicidal damage score, ECHCG” value is 4; the “Pre-emergence herbicidal damage score, SETFA” value is on record as 4. Besides, in experiment [2], the “ALOMY … application post-emergence” value is given as 5; the “AMARE … application post-emergence” value came out at 5; the “ECHCG … application post-emergence” value is on record as 5; the “SETFA (Setaria faberi) damage score” value came to 5.

`C=C(C)CNC1=C(Cl)C(=O)N(c2cc(C(C)(C)C)on2)C1O` (centres unmarked) [C3]: in experiment [1], the “Pre-emergence herbicidal damage score, ABUTH” value was found to be 5; the “Pre-emergence herbicidal damage score, ALOMY” value is 3; the “Pre-emergence herbicidal damage score, AMARE” value amounted to 5; the “Pre-emergence herbicidal damage score, ECHCG” value is given as 4. In experiment [1], the “Pre-emergence herbicidal damage score, SETFA” value turned out to be 3 and the “Pre-emergence herbicidal damage score, ZEAMX” value is given as 2. For the same compound, in experiment [2], the “ABUTH … application post-emergence” value is listed as 5; the “ALOMY … application post-emergence” value is listed as 4; the “AMARE … application post-emergence” value was found to be 5; the “ECHCG … application post-emergence” value was determined as 5. In experiment [2], the “SETFA (Setaria faberi) damage score” value is recorded as 5 and the “ZEAMX (Zea mays) damage score” value was 2.

For `CCOc1cc(N2C(=O)C(Cl)=C(C)C2O)no1` (centres unmarked) [A32], in experiment [1], the “Pre-emergence herbicidal damage score, ABUTH” value stood at 4; the “Pre-emergence herbicidal damage score, ALOMY” value was 2; the “Pre-emergence herbicidal damage score, AMARE” value was 1; the “Pre-emergence herbicidal damage score, ECHCG” value amounted to 3. Besides, in experiment [1], the “Pre-emergence herbicidal damage score, SETFA” value is given as 1 and the “Pre-emergence herbicidal damage score, ZEAMX” value was found to be 1. Further, in experiment [2], the “ABUTH … application post-emergence” value amounted to 5; the “ALOMY … application post-emergence” value stood at 2; the “AMARE … application post-emergence” value is 2; the “ECHCG … application post-emergence” value came to 5. In experiment [2], the “SETFA (Setaria faberi) damage score” value turned out to be 2 and the “ZEAMX (Zea mays) damage score” value was 2.

Take `CCC1=C(Br)C(=O)N(c2cc(C(C)(C)C)on2)C1O` (centres unmarked) [A14]: in experiment [1], the “Pre-emergence herbicidal damage score, ABUTH” value came to 5; the “Pre-emergence herbicidal damage score, ALOMY” value is 3; the “Pre-emergence herbicidal damage score, AMARE” value turned out to be 5; the “Pre-emergence herbicidal damage score, ECHCG” value was 4. For the same compound, in experiment [1], the “Pre-emergence herbicidal damage score, SETFA” value came out at 5 and the “Pre-emergence herbicidal damage score, ZEAMX” value was determined as 2. For the same compound, in experiment [2], the “ABUTH … application post-emergence” value was found to be 5; the “ALOMY … application post-emergence” value was found to be 5; the “AMARE … application post-emergence” value was 4; the “ECHCG … application post-emergence” value was 5. Besides, in experiment [2], the “SETFA (Setaria faberi) damage score” value is 5 and the “ZEAMX (Zea mays) damage score” value was 4.
